Measurements reported in publication PMC12136037, “Type II kinase inhibitors that target Parkinson’s disease–associated LRRK2” (Science Advances, 2025).

Tests used:
Assay in all cases: DSF 100 kinase selectivity screen;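 further: compound tested at 20 µM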
Type in all cases: binding
[1] = target: T1, ~100 representative kinases (Homo sapiens, UniProt P78368); conditions: Protein CSNK1G2; average of three replicates
T1 construct: Recombinant protein kinase domains with a concentration of 2 μM
In short: (§1)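 Each kinase domain, at 2 μM, is mixed with 20 μM test compound and SYPRO Orange in Hepes (20 mM, pH 7.5) with 500 mM NaCl. Temperature is then raised at 3°C/min and fluorescence-monitored unfolding yields the melting temperature change, ΔTm in degrees Celsius.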

[2] = target: T2, ~100 representative kinases (Homo sapiens, UniProt O75385); conditions: Protein ULK1; DSF; average of three replicates
T2 construct: Recombinant protein kinase domains with a concentration of 2 μM
T2 sequence (O75385 1-1050): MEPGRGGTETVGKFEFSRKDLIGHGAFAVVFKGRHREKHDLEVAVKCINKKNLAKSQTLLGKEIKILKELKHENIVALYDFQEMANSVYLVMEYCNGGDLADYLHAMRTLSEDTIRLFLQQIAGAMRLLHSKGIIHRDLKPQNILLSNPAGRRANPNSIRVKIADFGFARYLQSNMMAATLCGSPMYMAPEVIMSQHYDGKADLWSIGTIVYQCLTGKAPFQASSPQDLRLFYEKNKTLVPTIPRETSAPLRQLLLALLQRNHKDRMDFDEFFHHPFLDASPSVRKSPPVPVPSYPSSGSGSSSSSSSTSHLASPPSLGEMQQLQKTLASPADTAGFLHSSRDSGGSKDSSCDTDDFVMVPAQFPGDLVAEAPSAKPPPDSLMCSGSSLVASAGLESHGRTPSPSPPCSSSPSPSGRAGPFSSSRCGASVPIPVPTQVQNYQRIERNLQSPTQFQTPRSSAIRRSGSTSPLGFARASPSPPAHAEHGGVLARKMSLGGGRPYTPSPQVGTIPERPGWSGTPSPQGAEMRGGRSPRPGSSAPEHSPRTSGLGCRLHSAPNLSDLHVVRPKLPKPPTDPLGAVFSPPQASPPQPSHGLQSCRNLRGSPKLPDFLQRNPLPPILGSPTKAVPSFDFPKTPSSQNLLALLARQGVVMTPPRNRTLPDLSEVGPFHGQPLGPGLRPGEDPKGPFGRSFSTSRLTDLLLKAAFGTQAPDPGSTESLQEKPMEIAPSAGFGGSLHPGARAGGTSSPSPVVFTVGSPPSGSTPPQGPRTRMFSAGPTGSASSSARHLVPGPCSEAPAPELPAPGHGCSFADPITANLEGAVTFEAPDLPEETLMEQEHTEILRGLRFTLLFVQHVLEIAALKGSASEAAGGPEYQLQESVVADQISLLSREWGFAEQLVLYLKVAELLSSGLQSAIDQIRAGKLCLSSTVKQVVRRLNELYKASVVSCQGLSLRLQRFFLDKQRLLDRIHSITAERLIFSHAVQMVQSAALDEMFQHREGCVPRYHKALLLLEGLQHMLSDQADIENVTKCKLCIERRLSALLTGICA
In short: as §1

[3] = target: T3, ~100 representative kinases (Homo sapiens, UniProt O15164); conditions: Protein TIF1; DSF; average of three replicates
T3 construct: Recombinant protein kinase domains with a concentration of 2 μM
T3 sequence (O15164 1-1050): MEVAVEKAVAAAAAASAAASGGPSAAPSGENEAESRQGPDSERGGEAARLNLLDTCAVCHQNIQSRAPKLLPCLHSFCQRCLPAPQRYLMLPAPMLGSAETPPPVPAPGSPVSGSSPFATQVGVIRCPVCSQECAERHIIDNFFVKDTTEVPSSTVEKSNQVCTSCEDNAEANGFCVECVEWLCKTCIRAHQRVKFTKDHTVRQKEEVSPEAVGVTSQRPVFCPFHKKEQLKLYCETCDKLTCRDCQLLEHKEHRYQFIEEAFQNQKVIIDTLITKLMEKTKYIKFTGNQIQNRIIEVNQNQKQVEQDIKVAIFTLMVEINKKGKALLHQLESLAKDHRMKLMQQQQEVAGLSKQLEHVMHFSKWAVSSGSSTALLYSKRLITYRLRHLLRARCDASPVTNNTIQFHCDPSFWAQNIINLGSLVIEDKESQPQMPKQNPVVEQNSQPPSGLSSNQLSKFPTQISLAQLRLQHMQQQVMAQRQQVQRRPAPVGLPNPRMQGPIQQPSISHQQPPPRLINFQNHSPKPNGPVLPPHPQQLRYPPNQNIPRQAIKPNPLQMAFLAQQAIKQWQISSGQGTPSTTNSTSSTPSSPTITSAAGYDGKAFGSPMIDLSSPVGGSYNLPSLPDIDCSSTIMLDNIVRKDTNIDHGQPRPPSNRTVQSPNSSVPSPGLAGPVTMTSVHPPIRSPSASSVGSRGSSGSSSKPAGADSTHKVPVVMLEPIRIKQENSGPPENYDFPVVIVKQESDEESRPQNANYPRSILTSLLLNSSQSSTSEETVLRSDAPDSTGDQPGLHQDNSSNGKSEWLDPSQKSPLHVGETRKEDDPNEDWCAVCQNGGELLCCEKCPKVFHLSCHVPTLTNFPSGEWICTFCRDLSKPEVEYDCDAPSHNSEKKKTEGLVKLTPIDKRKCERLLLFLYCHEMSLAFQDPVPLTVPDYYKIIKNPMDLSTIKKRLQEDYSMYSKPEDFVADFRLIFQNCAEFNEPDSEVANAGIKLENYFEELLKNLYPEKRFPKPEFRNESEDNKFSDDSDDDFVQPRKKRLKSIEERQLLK
In short: as §1

[4] = target: T4, ~100 representative kinases (Homo sapiens, UniProt Q02750); conditions: protein MAP2K1; average of three replicates
T4 construct: Recombinant protein kinase domains with a concentration of 2 μM
In short: as §1

T1 sequence (P78368 whole entry, the tested form may be a part): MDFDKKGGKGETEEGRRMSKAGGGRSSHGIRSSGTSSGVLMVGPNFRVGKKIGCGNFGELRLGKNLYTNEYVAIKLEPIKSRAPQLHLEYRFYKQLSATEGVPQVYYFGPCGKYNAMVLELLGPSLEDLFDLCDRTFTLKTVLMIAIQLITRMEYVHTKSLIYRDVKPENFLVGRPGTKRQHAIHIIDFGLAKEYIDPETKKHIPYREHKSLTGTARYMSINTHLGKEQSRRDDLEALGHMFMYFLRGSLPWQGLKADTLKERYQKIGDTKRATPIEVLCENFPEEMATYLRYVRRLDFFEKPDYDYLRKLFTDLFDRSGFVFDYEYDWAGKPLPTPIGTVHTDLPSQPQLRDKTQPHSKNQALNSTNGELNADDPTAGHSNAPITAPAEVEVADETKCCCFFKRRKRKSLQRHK
T4 sequence (Q02750 whole entry, the tested form may be a part): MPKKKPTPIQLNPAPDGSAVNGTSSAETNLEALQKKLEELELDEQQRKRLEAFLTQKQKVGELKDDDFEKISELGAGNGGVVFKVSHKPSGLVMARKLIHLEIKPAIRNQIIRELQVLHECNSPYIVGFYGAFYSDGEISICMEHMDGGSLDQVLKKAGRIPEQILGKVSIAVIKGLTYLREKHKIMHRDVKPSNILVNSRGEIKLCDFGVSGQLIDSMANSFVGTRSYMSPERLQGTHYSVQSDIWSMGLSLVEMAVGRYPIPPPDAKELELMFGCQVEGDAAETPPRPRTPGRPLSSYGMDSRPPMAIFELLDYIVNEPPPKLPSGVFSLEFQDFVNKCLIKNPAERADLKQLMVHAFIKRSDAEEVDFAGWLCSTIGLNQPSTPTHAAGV

Cc1cc(NC(=O)C2(C(=O)Nc3cccc(-c4c[nH]c5ncnc(N6CCOCC6)c45)c3)CC2)ccc1F [Compound 20] showed a dTm [1] of 0.39 K.
In the case of CC(C)(C)c1cccc(NC(=O)C2(C(=O)Nc3cccc(-c4c[nH]c5ncnc(N6CCOCC6)c45)c3)CC2)c1 [Compound 22], the dTm [2] is reported as 9.16 K, the dTm [3] is reported as 5.42 K and the dTm [4] is reported as 2.23 K.
With CN[C@@H]1C[C@H]2O[C@@](C)([C@@H]1OC)n1c3ccccc3c3c4c(c5c6ccccc6n2c5c31)C(=O)NC4 [Staurosporine] the dTm [2] was 14.02 K.
O=C(Nc1cccc(-c2c[nH]c3ncnc(N4CCOCC4)c23)c1)C1(C(=O)Nc2ccc(F)cc2F)CC1 [Compound 23] gave a dTm [1] of 0.54 K.
For CC(=O)N1CCN(c2nc(Cl)nc3[nH]cc(-c4cccc(NC(=O)Nc5cc(C(C)(C)C)nn5-c5ccc(C)cc5)c4)c23)CC1 [Compound 31], the dTm [2] was 2.80 K, the dTm [3] was 0.90 K and the dTm [4] was 0.59 K.
Work on O=C(Nc1cc(F)cc(Br)c1)C1(C(=O)Nc2cccc(-c3c[nH]c4ncnc(N5CCOCC5)c34)c2)CC1 [Compound 27] yielded a dTm [2] of 6.71 K, a dTm [3] of 4.20 K and a dTm [4] of 2.13 K.
Work on O=C(Nc1ccccc1)C1(C(=O)Nc2cccc(-c3c[nH]c4ncnc(N5CCOCC5)c34)c2)CC1 [Compound 12] yielded a dTm [1] of 0.39 K.
With CNC(=O)c1cc(Oc2ccc(NC(=O)Nc3cc(C(C)(C)C)nn3-c3ccc4ncccc4c3)c(F)c2)ccn1 [Rebastinib, reference compound] the dTm [2] was 5.73 K, the dTm [3] was 0.87 K and the dTm [4] was 0.92 K.
Compound COc1cc2c(Oc3ccc(NC(=O)C4(C(=O)Nc5ccc(F)cc5)CC4)cc3F)ccnc2cc1OCCCN1CCOCC1 [Foretinib, reference compound] has a dTm [1] of 0.37 K.
In the case of Cc1ccc(NC(=O)C2(C(=O)Nc3cccc(-c4c[nH]c5ncnc(N6CCOCC6)c45)c3)CC2)cc1 [Compound 14], the dTm [1] is reported as 0.81 K.
With Cc1ccc(-n2nc(C(C)(C)C)cc2NC(=O)Nc2cccc(-c3c[nH]c4ncnc(N5CCOCC5)c34)c2)cc1 [Compound 29] the dTm [2] was 10.70 K, the dTm [3] was 0.97 K and the dTm [4] was 2.87 K.
Work on O=C(Nc1cccc(-c2c[nH]c3ncnc(N4CCOCC4)c23)c1)C1(C(=O)Nc2ccc(F)c(Br)c2)CC1 [Compound 19] yielded a dTm [2] of 12.52 K, a dTm [3] of 3.26 K and a dTm [4] of 2.40 K.
Work on COc1cc(S(C)(=O)=O)ccc1Nc1nc(N(C)C)c2c(Cl)c[nH]c2n1 [Compound 37] yielded a dTm [2] of -0.88 K, a dTm [3] of -0.80 K and a dTm [4] of -0.22 K.
For O=C(Nc1cccc(-c2c[nH]c3ncnc(N4CCOCC4)c23)c1)C1(C(=O)Nc2cc(Br)c(F)cc2F)CC1 [Compound 25], the dTm [2] was 7.16 K, the dTm [3] was 3.01 K and the dTm [4] was 2.16 K.
For Cc1cc(NC(=O)C2(C(=O)Nc3ccc(F)cc3)CC2)cc(-c2c[nH]c3ncnc(N4CCOCC4)c23)c1 [Compound 6], the dTm [2] was 5.26 K, the dTm [3] was 2.83 K and the dTm [4] was 1.10 K.
In the case of O=C(Nc1cccc(-c2c[nH]c3ncnc(N4CCOCC4)c23)c1)C1(C(=O)Nc2ccc(F)c(Br)c2F)CC1 [Compound 26], the dTm [2] is reported as 8.48 K, the dTm [3] is reported as 2.87 K and the dTm [4] is reported as 2.67 K.
CCSc1nc(NC)c2c(-c3cccc(NC(=O)Nc4cc(C(C)(C)C)nn4-c4ccc(C)cc4)c3)c[nH]c2n1 [Compound 32] gave a dTm [2] of 0.62 K, a dTm [3] of 0.82 K and a dTm [4] of 0.11 K.
For O=C(Nc1cccc(-c2c[nH]c3ncnc(N4CCOCC4)c23)c1)C1(C(=O)Nc2cccc3c2CCC3)CC1 [Compound 11], the dTm [2] was 6.92 K, the dTm [3] was 3.41 K and the dTm [4] was 2.12 K.
Cc1ccc(-n2nc(C(C)(C)C)cc2NC(=O)Nc2cccc(-c3c[nH]c4nc(Cl)nc(N5CCOCC5)c34)c2)cc1 [Compound 30] was tested, and the dTm [2] was 2.91 K, the dTm [3] was 1.73 K and the dTm [4] was 0.49 K.
With COc1cc(C(=O)N2CCOCC2)c(F)cc1Nc1nc(N(C)C)c2c(Cl)c[nH]c2n1 [Compound 36] the dTm [2] was -0.79 K, the dTm [3] was -2.24 K and the dTm [4] was -0.30 K.
